Where no end group is shown, it is not given here.
What was measured:
EV71 virus [1] = assay: 1H NMR titration of peptide with EV71 virus; assay type: binding, enterovirus 71 (EV71); details: molar ratio peptide to virus 90:1, 800 MHz, 298k
Method: (§1) The NMR titrations were performed on a Bruker 800 MHz (Avance NEO) spectrometer equipped with cryo-probe. The molar ratio of the peptide to the virus was 90:1. The experiments were recorded using zgespg pulse for 128 scans at 298k and the results were analyzed by Topspin.

EV71 virions = assay: Viral particle stability thermal release assay (PaSTRY); design: species or system enterovirus 71 (EV71); details: EV71 MOI = 10 pre-incubated with LL-18 or NaCl, SYBR green II, heated 25°C to 80°C; PBS control around 45°C
Method: Fig 6 LL-18 stabilizes the viral particles by inhibiting uncoating. (A) EV71 virus (MOI = 10) was pre-incubated with PBS, indicated amount of LL-18 or NaCl for 1 hr and then mixed with SYBR green dyes II before they were heated to indicated temperatures. The fluorescent signals were measured and plotted against temperature. PBS was used as a negative control. (B) EV71 virus (MOI = 10) was pre-incubated with PBS, LL-18, or 12s for 2 hrs. Half of the samples were then treated with 1.5 μg SCARB2 protein and incubated at 37°C for 2 hrs at pH 5.5. Samples were then subjected to ultracentrifugation as detailed in materials and methods. The numbers above represent the fractions collected from top to bottom.
EV71 viruses were preincubated with either PBS, NaCl or the indicated amount of LL-18 at room temperature for 2 hrs, before Sybr green II dye (3× working concentration, Solarbio, China) and RNase inhibitor (1 U/μL, Thermo Scientific) were added. The mixture was heated from 25°C to 80°C with an increment of 0.5°C for 30 seconds, and the fluorescence from SYBR green was monitored with a QuantGene 9600 real-time PCR system (Bioer, China).

CVB5 virus = assay: 1H NMR titration of peptide with CVB5 virus; assay type: binding, coxsackievirus B5; details: molar ratio peptide to virus 90:1, 800 MHz, 298k
Method: as §1

[2] = test system: mouse-adapted EV71 (mEV71); assay: mEV71 infection model in 6-day-old ICR mice; assay type: in vivo
Method: Fig 7 LL-18 inhibits mEV71 infection in vivo. (A) mEV71 was pre-treated with PBS or LL-18 and used to infect 6-day old ICR mice. The survival rate of mice infected with the mEV71 virus with or without LL-18 was recorded. (B) Mice infected with the mEV71 virus with or without LL-18 pre-treatment were sacrificed 1 day post infection (d.p.i.) and viral titers from brain and muscle tissues were determined. ***, P<0.001. (C) H&E staining of muscle tissue from mice infected with the mEV71 virus with or without LL-18. Blue arrows indicate infiltrated neutrophils. Bar, 20μm.
To prepare the mouse-adapted EV71 strain, the parental EV71 virus was intraperitoneally (i.p.) inoculated into 3-day-old ICR mice. Virus was then isolated from the brain tissue and inoculated into RD cells to amplify virus. […] 1×10^9 PFU/ml mEV71 was then incubated with an equal volume of PBS or LL-18 (20 mg/kg) for one hour, and used to infect 6-day-old ICR newborn mice intraperitoneally. Mice were monitored daily to record survival rate. Meanwhile, brain and muscle tissues were collected 1-day post infection for viral titration or H&E staining.
(§2) Supplementary file ppat.1011967.s005.tif: S5 Fig LL-18 inhibits mEV71 infection in vivo. (A) 6-day-old ICR mice were infected with parental EV71 or mouse-adapted virus (mEV71) and the mice survival rate was determined. (B) RD cells infected with mEV71 pre-incubated with PBS or LL-18 for 1 hr were determined for virus titer 24 h.p.i. ***, P<0.001. (C) ICR mice infected with mEV71 or mEV71 pre-incubated with the indicated amount of LL-18 were sacrificed at 1 d.p.i. and viral titers from muscle were determined. ns, not significant; ***, P<0.001. (TIF) Click here for additional data file.

[3] = test system: mouse-adapted EV71 (mEV71); assay: mEV71 infection inhibition in RD cells; assay type: cell-based, enterovirus 71 (EV71); details: mEV71 pre-incubated with LL-18 1 hr, titer 24 h.p.i (S5B Fig)
Method: as §2

EV71 virus [4] = assay: Time-of-addition study; assay type: cell-based, enterovirus 71 (EV71)
Method: Fig 2 LL-18 and FF-18 inhibit EV71 infection at the early stages of infection. (A-B) NanoLuc-EV71 reporter virus (A) or EV71 virus (MOI = 1, B) was pre-incubated with 1.5 μM LL-18 or FF-18 for 1 hr before they were used to infect RD cells. Luciferase (A) or viral RNA (B) was determined at indicated time points. Viral RNAs were normalized to mock treated cells at 1 h.p.i. ***, P<0.001. (C-E) EV71 virus (MOI = 1) was either pre-incubated with 1.5 μM LL-18 before infection (-2 and -1 time points), added simultaneously with LL-18 (0 time point) or LL-18 was added at indicated time points post-infection (1, 2, 4, 7 time points) and viral VP1 expression (C), cell viability (D), or viral titer (E) was determined 24 h.p.i. ns, not significant; **, P<0.01; ***, P<0.001. (F-H) EV71 virus (MOI = 1) was either pre-incubated with 1.5 μM FF-18 before infection (-2 and -1 time points), added simultaneously with FF-18 (0 time point) or FF-18 was added at indicated time points post-infection (1, 2, 4, 7 time points) and viral VP1 expression (F), cell viability (G), or viral titer (H) was determined 24 h.p.i. ns, not significant; **, P<0.01; ***, P<0.001.
Synthetic peptides were purchased from Bioyears Co. Ltd. (Wuhan, China) with purity of more than 95% and dissolved in PBS. […] Cell viability, viral titer, or viral protein expression was determined 24 h.p.i. […]

Sequence: FRKSKEKIGKLFKRIVQRILDFLRNLV [LL-18]
- interaction of peptide with EV71 virus by 1H 1D NMR (amide region) (EV71 virus [1]): chemical shift perturbation with multiple new peaks was observed
- temperature of peak SYBR green fluorescence intensity (RNA release) (EV71 virions): 53 °C
- interaction of peptide with CVB5 virus by 1H 1D NMR (amide region) (CVB5 virus): little effect on the spectra of peptides
- survival rate of infected suckling mice ([2]; 6-day-old ICR mice, mEV71 pre-incubated 1 hour with LL-18 (20mg/kg), intraperitoneal): could increase the sucking mouse survival rate
- viral loads of brain and muscle ([2]; 6-day-old ICR mice, mEV71 pre-incubated with LL-18 (20mg/kg), i.p., 1 d.p.i): significantly decreased the viral loads in both brain and muscle
- inflammatory cell infiltration in muscle (H&E histology) ([2]; 6-day-old ICR mice, mEV71 with LL-18 (20mg/kg)): improved with the administration of LL-18
- viral load in muscle, dose finding ([2]; ICR mice, mEV71 pre-incubated with 20 mg/kg LL-18, 1 d.p.i. (S5C Fig)): could significantly reduce the viral load
- inhibition of mEV71 infection in RD cells (virus titer) [3]: could still inhibit the infection of this mEV71 strain in RD cells
- inhibition of VP1 expression, virus-induced cell death, virus titer; peptide added after virus infection (EV71 virus [4]): little inhibition
- inhibition of VP1 expression, virus-induced cell death, virus titer; peptide added before virus infection (EV71 virus [4]): Potent inhibition
